Where “and” joins values, the source holds several entries; their conditions need not be identical. Equal entries are not always repeated. Where two headings read alike, the source gives them in different places.
System: C. elegans
[1] = Table S2, C. elegans SS assay, 110 μM, 24 h, averages of 4 data points
[2] = Table S2, C. elegans SS assay, 110 μM, 0 h, averages of 4 data points

SMILES | Percentage of motility inhibition 24 h [1] | Percentage of motility inhibition 0 h [2] | Percentage of motility inhibition 0 h (110 µM) | Percentage of motility inhibition 24 h (110 µM)
COC1=C[C@@H]2[C@@H]3Cc4ccc(OC)c(O)c4[C@]2(CCN3C)CC1=O [Sinomenine] | 3% and 0% | – | – | –
C[C@H]1CC[C@@H]2N(C1)C[C@H]1[C@@H]3C[C@H]4[C@@H](CC(=O)[C@H]5C[C@@H](O)CC[C@@]54C)[C@@H]3CC[C@H]1[C@]2(C)O [Sipeimine] | 9% | 0% | – | –
CN[C@@H]1[C@@H](O)[C@@H](O[C@@H]2[C@@H](O)[C@H](O[C@H]3OC(CN)=CC[C@H]3N)[C@@H](N)C[C@H]2N)OC[C@]1(C)O.CN[C@@H]1[C@@H](O)[C@@H](O[C@@H]2[C@@H](O)[C@H](O[C@H]3OC(CN)=CC[C@H]3N)[C@@H](N)C[C@H]2N)OC[C@]1(C)O.O=S(=O)(O)O.O=S(=O)(O)O.O=S(=O)(O)O.O=S(=O)(O)O.O=S(=O)(O)O [Sisomicin (sulfate)] | 0% | 2% | – | –
O=C([O-])c1ccccc1O.[Na+] [Sodium Salicylate] | 4% | 2% | – | –
O.O.O=C([O-])CC(O)(CC(=O)[O-])C(=O)[O-].[Na+].[Na+].[Na+] [Sodium citrate (dihydrate)] | 2% | 32% | – | –
CCCCCCCC/C=C\CCCCCCCC(=O)[O-].[Na+] [Sodium oleate] | 0% | 0% | – | –
O.O=C1C=CC[C@@H]2[C@H]3CCCN4CCC[C@@H](CN12)[C@@H]34 [Sophocarpine (monohydrate)] | 0% | 0% | – | –
CC(=O)OC[C@H]1O[C@@H](O[C@@H]2[C@@H](O)[C@H](O[C@@H]3[C@H](O)C(C)(C)C[C@H]4C5=CC[C@@H]6[C@@]7(C)CC[C@H](O[C@@H]8O[C@H](C(=O)O)[C@@H](O)[C@H](O)[C@H]8O[C@@H]8O[C@H](CO)[C@H](O)[C@H](O)[C@H]8O[C@@H]8O[C@H](CO)[C@@H](O)[C@H](O)[C@H]8O)[C@](C)(CO)[C@@H]7CC[C@@]6(C)[C@]5(C)CC[C@@]34C)OC[C@@H]2O)[C@H](OC(C)=O)[C@@H](OC(C)=O)[C@@H]1OC(C)=O [Soyasaponin Ab] | 4% | 21% | – | –
CC1(C)C[C@@H](O)[C@]2(C)CC[C@]3(C)C(=CC[C@@H]4[C@@]5(C)CC[C@H](O[C@@H]6O[C@H](C(=O)O)[C@@H](O)[C@H](O)[C@H]6O[C@@H]6O[C@H](CO)[C@H](O)[C@H](O)[C@H]6O[C@@H]6O[C@H](CO)[C@@H](O)[C@H](O)[C@H]6O)[C@](C)(CO)[C@@H]5CC[C@]43C)[C@@H]2C1 [Soyasaponin Ba] | 25% | 0% | – | –
C[C@@H]1O[C@@H](O[C@H]2[C@H](O[C@H]3[C@H](O[C@H]4CC[C@@]5(C)[C@@H](CC[C@]6(C)[C@@H]5CC=C5[C@@H]7CC(C)(C)C[C@@H](O)[C@]7(C)CC[C@]56C)[C@@]4(C)CO)O[C@H](C(=O)O)[C@@H](O)[C@@H]3O)O[C@H](CO)[C@H](O)[C@@H]2O)[C@H](O)[C@H](O)[C@H]1O [Soyasaponin Bb] | 0% | 0% | – | –
CN[C@@H]1[C@H](O)[C@H](NC)[C@H]2O[C@@]3(O)C(=O)C[C@@H](C)O[C@H]3O[C@@H]2[C@H]1O.Cl.Cl [Spectinomycin (dihydrochloride)] | 1% | 0% | – | –
COc1cc2oc(-c3ccc(O)cc3)cc(=O)c2c(O)c1[C@@H]1O[C@H](CO)[C@@H](O)[C@H](O)[C@H]1O[C@@H]1O[C@H](CO)[C@@H](O)[C@H](O)[C@H]1O [Spinosin] | – | – | 2% | 6%
CCC(C)(C)C(=O)OC1=C(c2ccc(Cl)cc2Cl)C(=O)OC12CCCCC2 [Spirodiclofen] | 0% | 5% | – | –
C[N+]1(C)CCC[C@H]1C(=O)[O-].Cl [Stachydrine hydrochloride] | 26% | 15% | – | –
C[N+]1(C)CCC[C@H]1C(=O)[O-] [Stachydrine] | 0% | 0% | – | –
CCCCCCCCCCCCCCCCCCOC(=O)[C@@]1(C)CC[C@]2(C)CC[C@]3(C)C(=CC(=O)[C@@H]4[C@@]5(C)CC[C@H](O)C(C)(C)[C@@H]5CC[C@]43C)[C@@H]2C1 [Stearyl glycyrrhetinate] | 0% | 0% | – | –
C=C1C[C@@]23CC[C@H]4[C@@](C)(CCC[C@@]4(C)C(=O)O)[C@@H]2CC[C@]1(O[C@@H]1O[C@H](CO)[C@@H](O)[C@H](O)[C@H]1O[C@@H]1O[C@H](CO)[C@@H](O)[C@H](O)[C@H]1O)C3 [Steviolbioside] | 5% | 10% | – | –
CN[C@@H]1[C@H](O[C@H]2[C@H](O[C@H]3[C@H](O)[C@@H](O)[C@H](N=C(N)N)[C@@H](O)[C@@H]3N=C(N)N)O[C@@H](C)[C@]2(O)C=O)O[C@@H](CO)[C@H](O)[C@H]1O.CN[C@@H]1[C@H](O[C@H]2[C@H](O[C@H]3[C@H](O)[C@@H](O)[C@H](N=C(N)N)[C@@H](O)[C@@H]3N=C(N)N)O[C@@H](C)[C@]2(O)C=O)O[C@@H](CO)[C@H](O)[C@H]1O.O=S(=O)(O)O.O=S(=O)(O)O.O=S(=O)(O)O [Streptomycin (sulfate)] | 26% | 31% | – | –
CC(=O)[N-]S(=O)(=O)c1ccc(N)cc1.[Na+] [Sulfacetamide (Sodium)] | 6% | 33% | – | –
Nc1ccc(S(=O)(=O)Nc2cncc(Cl)n2)cc1 [Sulfaclozine] | 1% | 3% | – | –
Nc1ccc(S(=O)(=O)[N-]c2nccs2)cc1.[Na+] [Sulfathiazole (sodium)] | 6% | 15% | – | –
Cc1cc(NS(=O)(=O)c2ccc(N)cc2)nc(C)n1 [Sulfisomidin] | 10% | 26% | – | –
CNCC(O)c1ccc(O)cc1.Cl (stereo not shown) [Synephrine (hydrochloride)] | 4% | 0% | – | –
CC(=O)OC[C@]12C[C@H](OC(=O)CC(C)C)C(C)=C[C@H]1O[C@@H]1[C@H](O)[C@@H](OC(C)=O)[C@@]2(C)[C@]12CO2 [T-2 Toxin] | – | – | 11% | 2%
Cc1ccc(CCCO)c(NCc2ccc3nc(NCCCN4CCOCC4)n(Cc4nc(C)ccc4O)c3c2)c1 [TMC353121] | 4% | 25% | – | –
C=C1CC[C@]2(C)CC[C@]3(C)[C@H](CC[C@@H]4[C@@]5(C)CC[C@H](O)C(C)(C)[C@@H]5CC[C@]43C)[C@H]2[C@@H]1C [Taraxasterol] | 2% | 1% | – | –
CCN(CC)c1nc2c(S(=O)(=O)c3ccc(Cl)cc3)nnn2c2cc(OC)c(OC)cc12 [Targocil] | 11% | 21% | – | –
C[C@H](CCC(=O)NCCS(=O)(=O)[O-])[C@H]1CC[C@H]2[C@@H]3CC[C@@H]4C[C@H](O)CC[C@]4(C)[C@H]3C[C@H](O)[C@]12C.[Na+] [Taurodeoxycholic acid (sodium hydrate)] | 3% | 8% | – | –

Reference: paper PMC11855827, “High-Throughput Screening of Five Compound Libraries for Anthelmintic Activity and Toxicity Leads to the Discovery of Two Flavonoid Compounds” (International Journal of Molecular Sciences, 2025)
